From article PMC5431086, “The Rational Design of Therapeutic Peptides for Aminopeptidase N using a Substrate-Based Approach” (Scientific Reports, 2017)
Where “and” joins values, the source holds several entries; their conditions need not be identical. Identical values can stand only once. Residues, ends and D or L forms follow the SMILES beside them. No end group written: not given here.

Biological target: T1, hAPN (aminopeptidase N) (Homo sapiens, UniProt P15144)
T1 construct: human APN ecdomain (residues 66–967) were expressed and purified as previously described; honeybee-melittin signal peptide (N); His6 (C); made in house; host or cells: insect cells
T1 sequence (P15144 66-967): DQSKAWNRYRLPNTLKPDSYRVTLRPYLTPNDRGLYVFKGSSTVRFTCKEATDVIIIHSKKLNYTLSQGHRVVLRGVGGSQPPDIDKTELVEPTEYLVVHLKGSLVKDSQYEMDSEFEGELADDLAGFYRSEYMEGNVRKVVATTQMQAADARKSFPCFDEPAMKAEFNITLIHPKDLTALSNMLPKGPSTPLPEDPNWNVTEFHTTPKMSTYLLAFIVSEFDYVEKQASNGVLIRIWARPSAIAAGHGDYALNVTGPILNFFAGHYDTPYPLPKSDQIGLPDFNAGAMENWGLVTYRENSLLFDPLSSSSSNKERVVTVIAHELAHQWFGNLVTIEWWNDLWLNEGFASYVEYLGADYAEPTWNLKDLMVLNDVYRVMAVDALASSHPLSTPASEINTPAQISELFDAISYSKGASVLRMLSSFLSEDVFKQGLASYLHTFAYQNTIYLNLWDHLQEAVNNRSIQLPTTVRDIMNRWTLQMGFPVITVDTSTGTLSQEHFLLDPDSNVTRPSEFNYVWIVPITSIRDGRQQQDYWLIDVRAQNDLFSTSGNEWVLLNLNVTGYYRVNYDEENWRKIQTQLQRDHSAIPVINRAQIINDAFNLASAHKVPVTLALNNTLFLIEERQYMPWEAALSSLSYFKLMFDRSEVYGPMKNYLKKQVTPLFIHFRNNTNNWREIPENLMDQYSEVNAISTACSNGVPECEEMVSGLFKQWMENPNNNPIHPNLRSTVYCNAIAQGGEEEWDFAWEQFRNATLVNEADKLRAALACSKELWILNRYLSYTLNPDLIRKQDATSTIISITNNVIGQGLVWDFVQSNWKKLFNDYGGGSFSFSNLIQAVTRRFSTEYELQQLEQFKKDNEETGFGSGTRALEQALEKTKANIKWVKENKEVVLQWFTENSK
Test: Inhibition of cleavage of fluorogenic alanine substrate (H-Ala-AMC) by APN
Assay type: biochemical
Conditions: 0.1 μM APN, 100 μM H-Ala-AMC, pH 7.2, 37 °C, triplicate
Procedure: Five-residue long peptides containing P1–P4′ residues from primary cleavages in the library were synthesized and tested for their ability to prevent the cleavage of a fluorogenic alanine substrate by hAPN.
The peptides used in this study were custom synthesized by AAPPTEC of Louisville, KY using traditional Fmoc solid-phase peptide synthesis. All of the peptides were purified and characterized by AAPPTEC. […] Inhibition assays were performed in triplicate in a 100 mM Tris pH 7.2, Brij 35 0.0002% w/v assay buffer at 37 °C with 0.1 μM APN and 100 μM H-Ala-AMC (fluorophore). Values were recorded by Infinite pro plate reader every 2 minutes for 30 minutes with laser parameters set for excitation at 355 nm and emission at 460 nm.

Row | IC50 | Molecule
1 | > 500 µM | AHSTF [AHSTF]
2 | 10.6 ± 1.2 µM | LHSPW [LHSPW]
3 | > 500 µM | INDFL [INDFL]
4 | > 500 µM | C[C@@H](O)[C@H](NC(=O)[C@H](CO)NC(=O)[C@@H](N)CC(=O)O)C(=O)N[C@@H](Cc1ccccc1)C(=O)O [DSTF] (H-DSTF-OH)
5 | > 500 µM | LDSTF [LDSTF]
6 | > 500 µM | EPKVA [EPKVA]
7 | > 500 µM | FDWWG [FDWWG]
8 | > 500 µM | AHLFN [AHLFN]
9 | 115 ± 17.2 µM | EHSPW [EHSPW]
10 | 82.5 ± 9.3 µM | PHSPW [PHSPW]
11 | > 500 µM | C[C@H](NC(=O)[C@@H](N)CC(=O)O)C(=O)N[C@@H](CCCNC(=N)N)C(=O)N[C@@H](CCCCN)C(=O)O [DARK] (H-DARK-OH)
12 | 9.4 ± 1.1 µM | AHSPW [AHSPW]
13 | > 500 µM | RDLVD [RDLVD]
14 | > 500 µM | FYLRE [FYLRE]
15 | 43 µM and 43.3 µM | N[C@@H](Cc1c[nH]cn1)C(=O)N[C@@H](CO)C(=O)N1CCC[C@H]1C(=O)N[C@@H](Cc1c[nH]c2ccccc12)C(=O)O [HSPW] (H-HSPW-OH; N-terminus and C-terminus assumed)
16 | > 500 µM | SKSGQ [SKSGQ]
17 | > 500 µM | FSLSK [FSLSK]
